Entries after “also recorded” stand apart in the source; their conditions may differ. Like-named read-outs stand apart in the source and are kept apart here.
Columns and labels:
[1] = molecular target: T1, endogenous eβG activity (Escherichia coli, UniProt P05804); test: Endogenous β-glucuronidase activity assay in BL21 E. coli cells; type: cell-based; conditions: at both low (10 μM) or high concentration (50 μM) (FIG. 2)
T1 construct: endogenous in cells; host or cells: BL21 E. coli
Method: The pyrazolo[4,3-c]quinoline derivatives were examined for their inhibition against endogenous eβG activity. This assay is similar with the in vitro assay. BL21 E. coli cells were grown to an OD600 of 0.35 in LB medium. E. coli were 4 times diluted and incubated with each inhibitor. The endogenous eβG activity was measured by detecting PNP as described.

[2] = molecular target: E. coli β-glucuronidase (eβG) (Escherichia coli, UniProt P05804); test: Inhibition of purified recombinant eβG activity (pNPG substrate, OD420); type: biochemical; conditions: for Inhibition efficacy of eβG activity compared with βG-Inh: FIG. 1; for remaining activity at 10 µM: read-out: Percent activity of E. coli-glucuronidase at 10 μM (%); for Selective inhibition of eβG versus hβG (in words): recombinant eβG and hβG, serial dilution of inhibitors (FIG. 1)
Sequence of E. coli β-glucuronidase (eβG) (P05804 whole entry): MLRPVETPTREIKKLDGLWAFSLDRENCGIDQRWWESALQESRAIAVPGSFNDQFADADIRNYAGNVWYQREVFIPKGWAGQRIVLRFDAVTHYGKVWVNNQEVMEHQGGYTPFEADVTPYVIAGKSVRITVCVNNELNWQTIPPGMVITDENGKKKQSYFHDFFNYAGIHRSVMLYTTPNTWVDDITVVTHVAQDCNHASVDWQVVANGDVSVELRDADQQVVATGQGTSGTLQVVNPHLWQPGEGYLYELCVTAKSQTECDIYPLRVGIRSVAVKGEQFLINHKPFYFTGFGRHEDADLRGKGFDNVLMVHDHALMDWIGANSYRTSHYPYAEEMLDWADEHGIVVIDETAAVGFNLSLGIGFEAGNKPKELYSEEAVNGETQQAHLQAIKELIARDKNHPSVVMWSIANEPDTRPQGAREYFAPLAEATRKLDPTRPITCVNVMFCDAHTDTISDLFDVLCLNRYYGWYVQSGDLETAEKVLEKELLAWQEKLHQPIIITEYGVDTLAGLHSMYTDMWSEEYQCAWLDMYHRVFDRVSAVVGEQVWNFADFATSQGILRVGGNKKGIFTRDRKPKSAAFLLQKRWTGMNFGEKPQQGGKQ
Method: (§1) The pyrazolo[4,3-c]quinoline derivatives were examined for their inhibition against eβG or hβG activity. Purified recombinant eβG or hβG proteins were incubated with serial dilution of the inhibitors, respectively. The βG activity was determined by color development of a βG substrate, pNPG. The hydrolysis product of pNPG, PNP was measured by OD420.

[3] = molecular target: T2, human liver-glucuronidase (hβG) (Homo sapiens, UniProt P08236); test: Inhibition of purified recombinant hβG activity (pNPG substrate, OD420); type: biochemical; conditions: read-out: Percent activity of human liver-glucuronidase at 10 μM (%)
T2 sequence (P08236 23-651): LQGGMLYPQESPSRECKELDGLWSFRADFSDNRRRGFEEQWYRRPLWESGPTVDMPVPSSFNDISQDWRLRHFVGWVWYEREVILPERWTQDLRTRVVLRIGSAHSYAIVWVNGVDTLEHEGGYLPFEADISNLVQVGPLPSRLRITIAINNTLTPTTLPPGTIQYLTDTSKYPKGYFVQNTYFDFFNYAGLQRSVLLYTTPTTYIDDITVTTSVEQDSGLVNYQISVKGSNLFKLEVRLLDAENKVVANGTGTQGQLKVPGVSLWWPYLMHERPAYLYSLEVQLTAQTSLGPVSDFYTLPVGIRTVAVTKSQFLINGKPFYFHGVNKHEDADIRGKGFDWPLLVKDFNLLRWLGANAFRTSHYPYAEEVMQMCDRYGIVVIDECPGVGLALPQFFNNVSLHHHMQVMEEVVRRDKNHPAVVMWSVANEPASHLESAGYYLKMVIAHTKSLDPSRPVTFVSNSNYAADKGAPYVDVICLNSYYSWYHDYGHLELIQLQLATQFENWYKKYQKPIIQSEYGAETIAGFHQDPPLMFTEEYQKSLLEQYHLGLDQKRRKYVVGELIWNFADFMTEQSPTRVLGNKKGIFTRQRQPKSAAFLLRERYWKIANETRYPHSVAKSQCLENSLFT
Method: as §1

[4] = tested on: TOP10 E. coli cells; test: E. coli growth assay (OD600); type: cell-based; conditions: 100 μM; OD600 at 6 hour after treatment; TOP10 E. coli (FIG. 4)
Method: The pyrazolo[4,3-c]quinoline derivatives were examined for effects on the growth of E. coli. TOP10 E. coli cells were grown to an OD600 of 0.35 in LB medium and treated with each inhibitor. E. coli cell cultures were monitored by reading OD600 at 6 hour after treatment. The cell viability were compared to non-inhibitor control group and shown in % control.

[5] = tested on: intestinal βG activity; test: In vivo image of intestinal β-glucuronidase activity (FDGlcU pro-probe); parameters: species or system Balb/cJ mice; conditions: mice; for Inhibition of intestinal βG activity (fluorescence signal in the intestine): oral 60 μg/200 μl per day for five days, FDGlcU on sixth day (FIG. 5A)
Method: 17 (TCH-3511) or 32 (TCH-3510) was examined for its inhibition against intestinal βG activity in mice by in vivo image of eβG activity. 5 (TCH-3562), 17 (TCH-3511) or 32 (TCH-3510) was dissolved in ddH2O. Healthy 6-10 week old female Balb/cJ mice were oral administrated with 5 (TCH-3562), 17 (TCH-3511), 32 (TCH-3510) or ddH2O per day (60 μg/200 μl) for five consecutive days. FDGlcU, a βG fluorescent pro-probe was oral feed at the sixth day. The βG activity was detected by in vivo optical imaging system.

[6] = tested on: DMH induced tumorigenesis in the intestine; test: DMH induced tumorigenesis in the intestine; type: in vivo, C57BL/6J-APC^MIN/J mice
Method: Either water or 17 (TCH-3511) 3 mg/kg/day was orally administrated three times per week throughout the experimental period (8 week). Mice were given intraperitoneal DMH (30 mg/kg/week).
17 (TCH-3511) was given to C57BL/6J-APC^MIN/J mice to check whether prevent DMH-induced intestinal damage and tumorigenesis. 17 (TCH-3511) (3 mg/kg, 3 times/week) was provided orally along with intraperitoneal injection of DMH (30 mg/kg, once/week). After 8 weeks of treatment, mice were sacrificed and the tumor in the intestine was examined.

[7] = tested on: CT26 murine colon adenocarcinoma cells; test: Anti-tumor efficacy of CPT-11 in CT26 tumor-bearing mice; type: in vivo, Balb/cJ mice; conditions: 3 mg/kg/day oral with CPT-11 50 mg/kg/day i.p.; CT26 tumors (FIG. 6B)
Method: (§2) FIGS. 6A and B show the effects of 17 (TCH-3511) on diarrhea and antitumor activity of CPT-11. Mice were inoculated with CT26 cells on day −7. Either water or 17 (TCH-3511) 3 mg/kg/day was orally administrated per day throughout the experimental period (day 0 onward). Mice were given daily intraperitoneal either CPT-11 treatment (50 mg/kg/day) or saline staring on day 2. Diarrhea level and tumor size was scored every other day.
(§3) 17 (TCH-3511) was given to mice to test whether inhibition of intestinal βG by bacterial inhibitor 17 (TCH-3511) eliminates CPT-11-induced diarrhea and maintain the therapeutic efficacy in combination with CPT-11 in tumor-bearing mice. CT26 murine colon adenocarcinoma cells were s.c. implanted into Balb/cJ mice. After solid tumor formed, 17 (TCH-3511) (3 mg/kg/day) was provided orally along with intraperitoneal injection of CPT-11 (50 mg/kg/day). Signs of diarrhea were according to stool forms and the perianal staining of the anus.

[8] = tested on: CPT-11 induced diarrhea; test: CPT-11 induced diarrhea in tumor-bearing mice; type: in vivo, Balb/cJ mice; conditions: 3 mg/kg/day oral with CPT-11 50 mg/kg/day i.p.; CT26 tumor-bearing mice (FIG. 6A)
Method: as §2, §3

[9] = 10 μM, purified recombinant hβG, pNPG, means ± S.D. of at least three separate experiments

T1 sequence (P05804 whole entry): as the sequence (P05804 whole entry) above

Nc1n[nH]c2c1c(Nc1ccc(Cl)cc1)nc1ccccc12 [Compound 4, 3-Amino-4-(4-chlorophenylamino)-1H-pyrazolo[4,3-c]quinoline]
melting point: 246 to 248 °C
Inhibition efficacy of endogenous eβG activity compared with βG-Inh [1]: better inhibition efficacy of endogenous eβG activity than βG-Inh
Inhibition efficacy of eβG activity compared with βG-Inh [2]: better inhibition efficacy of eβG activity than βG-Inh
remaining activity at 10 µM [2]: 4.5 ± 0.71%
Selective inhibition of eβG versus hβG (in words) [2]: selectively inhibited eβG activity but not hβG
remaining activity at 10 µM [3, 9]: 113 ± 2.83%

Cc1ccc(Nc2nc3ccccc3c3[nH]nc(N)c23)cc1 [Compound 5, 3-Amino-4-(4-methylphenylamino)-1H-pyrazolo[4,3-c]quinoline]
melting point: 292 to 294 °C
Effects on E. coli growth [4]: no effects on E. coli growth
Inhibition efficacy of endogenous eβG activity compared with βG-Inh [1]: better inhibition efficacy of endogenous eβG activity than βG-Inh
Inhibition efficacy of eβG activity compared with βG-Inh [2]: better inhibition efficacy of eβG activity than βG-Inh
remaining activity at 10 µM [2]: 4.5 ± 0.71%
Selective inhibition of eβG versus hβG (in words) [2]: selectively inhibited eβG activity but not hβG
remaining activity at 10 µM [3, 9]: 110 ± 2.12%

Nc1n[nH]c2c1c(Nc1ccc(F)cc1)nc1ccccc12 [Compound 17, 3-Amino-4-(4-fluorophenylamino)-1H-pyrazolo[4,3-c]quinoline]
melting point: 266 to 268 °C
Inhibition of intestinal βG activity, comparison between compounds ([5]; in vivo optical imaging (FIG. 5B)): better than 32 (THC-3510)
Inhibition of intestinal βG activity (fluorescence signal in the intestine) ([5]; listed as 17 (TCH-3511)): significantly reduced the fluorescence signal in the intestine; also recorded: significantly inhibit intestinal βG activity
Number of tumors in the intestine ([6]; 3 mg/kg oral 3 times/week with DMH 30 mg/kg i.p. once/week, after 8 weeks (FIG. 7), DMH only group more than 26): six
Effect on DMH-induced intestinal damage and tumorigenesis ([6]; 3 mg/kg oral 3 times/week with DMH 30 mg/kg/week i.p., 8 weeks (FIG. 7), listed as 17 (TCH-3511)): can reduce DMH-induced intestinal damage and prevent tumorigenesis
Effects on E. coli growth [4]: no effects on E. coli growth
Effect on anti-tumor efficacy of CPT-11 treatment [7]: no effects on the anti-tumor efficacy of CPT-11 treatment
Effect on CPT-11 induced diarrhea [8]: can reduce CPT-11 induced diarrhea
Inhibition efficacy of endogenous eβG activity compared with βG-Inh [1]: better inhibition efficacy of endogenous eβG activity than βG-Inh
Inhibition efficacy of eβG activity compared with βG-Inh [2]: better inhibition efficacy of eβG activity than βG-Inh
remaining activity at 10 µM [2]: 5 ± 1%
Selective inhibition of eβG versus hβG (in words) [2]: selectively inhibited eβG activity but not hβG
remaining activity at 10 µM [3, 9]: 99 ± 1.41%

Nc1n[nH]c2c1c(Nc1ccccc1O)nc1ccccc12 [Compound 29, 3-Amino-4-(2-hydroxyphenylamino)-1H-pyrazolo[4,3-c]quinoline]
melting point: 156 to 157 °C
remaining activity at 10 µM [2]: 7 ± 1%
remaining activity at 10 µM [3, 9]: 104 ± 2.12%

Cc1ccccc1Nc1nc2ccccc2c2[nH]nc(N)c12 [Compound 30, N^4-(o-Tolyl)-1H-pyrazolo[4,3-c]quinoline-3,4-diamine]
melting point: 228 to 230 °C
remaining activity at 10 µM [2]: 17 ± 2.1%
remaining activity at 10 µM [3, 9]: 95.69 ± 0.01%

Nc1n[nH]c2c1c(Nc1ccccc1Cl)nc1ccccc12 [Compound 31, N^4-(2-Chlorophenyl)-1H-pyrazolo[4,3-c]quinoline-3,4-diamine]
melting point: 243 to 244 °C
remaining activity at 10 µM [2]: 29.7 ± 3%
remaining activity at 10 µM [3, 9]: 79.81 ± 0.01%

COc1ccccc1Nc1nc2ccccc2c2[nH]nc(N)c12 [Compound 32, 3-Amino-4-(2-methoxyphenylamino)-1H-pyrazolo[4,3-c]quinoline]
melting point: 210 to 211 °C
Inhibition of intestinal βG activity (fluorescence signal in the intestine) [5]: significantly inhibit intestinal βG activity
Effects on E. coli growth [4]: no effects on E. coli growth
Inhibition efficacy of endogenous eβG activity compared with βG-Inh [1]: better inhibition efficacy of endogenous eβG activity than βG-Inh
Inhibition efficacy of eβG activity compared with βG-Inh [2]: better inhibition efficacy of eβG activity than βG-Inh
remaining activity at 10 µM [2]: 3.5 ± 0.71%
Selective inhibition of eβG versus hβG (in words) [2]: selectively inhibited eβG activity but not hβG
remaining activity at 10 µM [3]: 103 ± 1.41%

COc1ccc(NC(=O)Nc2n[nH]c3c2c(=O)[nH]c2ccccc23)cc1 [Compound 35, 1-(4-Methoxyphenyl)-3-(4-oxo-4,5-dihydro-1H-pyrazolo[4,3-c]-quinolin-3-yl)urea]
melting point: 224 to 225 °C
remaining activity at 10 µM [2]: 52 ± 4.24%
remaining activity at 10 µM [3, 9]: 81.5 ± 0.71%

O=C(Nc1ccccc1)Nc1n[nH]c2c1c(Nc1ccc(Cl)cc1)nc1ccccc12 [Compound 36, 1-{4-[(4-Chlorophenyl)amino]-1H-pyrazolo[4,3-c]quinolin-3-yl}-3-phenylurea]
melting point: 282 to 283 °C
remaining activity at 10 µM [2]: 4 ± 1%
remaining activity at 10 µM [3, 9]: 83.1 ± 1.29%

Cc1ccc(Nc2nc3ccccc3c3[nH]nc(NC(=O)Nc4ccccc4)c23)cc1 [Compound 37, 1-Phenyl-3-[4-(p-tolylamino)-1H-pyrazolo[4,3-c]quinolin-3-yl]urea]
melting point: 212 to 213 °C
remaining activity at 10 µM [2]: 3 ± 1%
remaining activity at 10 µM [3, 9]: 82 ± 1.41%

COc1ccc(NC(=O)Nc2n[nH]c3c2c(Nc2ccc(Cl)cc2)nc2ccccc23)cc1 [Compound 38, 1-{4-[(4-Chlorophenyl)amino]-1H-pyrazolo[4,3-c]quinolin-3-yl}-3-(4-methoxyphenyl)urea]
melting point: 211 to 212 °C
remaining activity at 10 µM [2]: 4 ± 1%
remaining activity at 10 µM [3, 9]: 85.5 ± 0.71%

COc1ccc(NC(=O)Nc2n[nH]c3c2c(Nc2ccc(C)cc2)nc2ccccc23)cc1 [Compound 39, 1-(4-Methoxyphenyl)-3-[4-(p-tolylamino)-1H-pyrazolo[4,3-c]-quinolin-3-yl]urea]
melting point: 163 to 164 °C
remaining activity at 10 µM [2]: 3.5 ± 0.71%
remaining activity at 10 µM [3, 9]: 87.5 ± 2.12%
